# Measured values from ChEMBL document CHEMBL5042543, “Bridged Piperidine Analogues of a High Affinity Naphthalene-Based P2Y14R Antagonist” (J Med Chem, 2022).
# Experiments:
# [1] = Distribution coefficient, logD of compound at pH 7.4 by HPLC analysis; format: physicochemical; conditions: octanol/water
# [2] = target: Sigma intracellular receptor 2 (Homo sapiens, UniProt Q5BJF2); assay: Inhibition of sigma 2 receptor (unknown origin) assessed as binding constant
# [3] = target: T1, P2Y purinoceptor 14 (Mus musculus, UniProt Q9ESG6); assay: Inhibition of fluorescent antagonist binding to mouse P2Y14R expressed in HEK293 cells preincubated for 30 mins followed by addition of 6-amino-9-(2-carboxy-4-((6-(4-(4-(4-(4-(3-carboxy-6-(4-(trifluoromethyl)phenyl)naphthalen-1-yl)phenyl)piperidin-1-yl)butyl)-1H-1,2,3-triazol-1-yl)hexyl)carbamoyl)phenyl)-3-iminio-5-sulfo-3H-xanthene-4-sulfonate incubated for 30 mins by BD FACSCalibur flow …; format: cell-based
# T1 sequence (Q9ESG6 whole entry): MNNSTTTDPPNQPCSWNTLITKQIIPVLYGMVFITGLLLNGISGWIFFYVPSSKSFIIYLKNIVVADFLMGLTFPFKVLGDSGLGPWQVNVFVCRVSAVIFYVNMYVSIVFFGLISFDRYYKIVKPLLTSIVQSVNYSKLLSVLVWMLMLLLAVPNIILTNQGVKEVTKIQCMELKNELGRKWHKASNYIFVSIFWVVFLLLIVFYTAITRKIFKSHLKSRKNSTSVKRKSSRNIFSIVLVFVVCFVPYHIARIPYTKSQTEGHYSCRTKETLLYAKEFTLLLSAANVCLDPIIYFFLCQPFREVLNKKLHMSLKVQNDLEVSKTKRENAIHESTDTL
# [4] = Aqueous solubility of the compound at pH 4
# [5] = Aqueous solubility of the compound at pH 7.4
# [6] = target: T2, P2Y purinoceptor 14 (Homo sapiens, UniProt Q15391); assay: cell-based
# T2 sequence (Q15391 whole entry): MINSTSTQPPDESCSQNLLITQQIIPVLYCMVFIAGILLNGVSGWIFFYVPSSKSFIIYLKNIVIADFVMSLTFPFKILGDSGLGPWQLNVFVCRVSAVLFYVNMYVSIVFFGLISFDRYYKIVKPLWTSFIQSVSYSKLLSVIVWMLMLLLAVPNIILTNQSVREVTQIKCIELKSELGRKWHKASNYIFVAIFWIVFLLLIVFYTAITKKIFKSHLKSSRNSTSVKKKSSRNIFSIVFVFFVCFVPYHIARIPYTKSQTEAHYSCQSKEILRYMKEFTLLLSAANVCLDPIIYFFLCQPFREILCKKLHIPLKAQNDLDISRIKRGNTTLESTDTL
# Description: Inhibition of fluorescent antagonist binding to human P2Y14R expressed in CHO cells preincubated for 30 mins followed by 6-amino-9-(2-carboxy-4-((6-(4-(4-(4-(4-(3-carboxy 6-(4-(trifluoromethyl)phenyl)naphthalen-1-yl)phenyl)piperidin-1-yl)butyl)-1H-1,2,3-triazol-1-yl)hexyl)carbamoyl)phenyl)-3-iminio-5-sulfo-3H-xanthene-4-sulfonate addition and measured after 30 mins by BD FACSCalibur flow cytometry analysis
# [7] = target: D(1B) dopamine receptor (Homo sapiens, UniProt P21918); assay: Inhibition of dopamine D5 receptor (unknown origin) assessed as binding constant
# [8] = target: Sigma non-opioid intracellular receptor 1 (Homo sapiens, UniProt Q99720); assay: Inhibition of sigma 1 receptor (unknown origin) assessed as binding constant
# [9] = target: Beta-3 adrenergic receptor (Homo sapiens, UniProt P13945); assay: Inhibition of adrenergic beta 3 receptor (unknown origin) assessed as binding constant
# [10] = target: T3, liver carboxylesterase (Sus scrofa, UniProt Q29550); assay: Stability of the compound in aqueous medium at pH 7.4 assessed as half life in presence of porcine liver esterase; format: physicochemical; conditions: pig
# T3 sequence (Q29550 whole entry): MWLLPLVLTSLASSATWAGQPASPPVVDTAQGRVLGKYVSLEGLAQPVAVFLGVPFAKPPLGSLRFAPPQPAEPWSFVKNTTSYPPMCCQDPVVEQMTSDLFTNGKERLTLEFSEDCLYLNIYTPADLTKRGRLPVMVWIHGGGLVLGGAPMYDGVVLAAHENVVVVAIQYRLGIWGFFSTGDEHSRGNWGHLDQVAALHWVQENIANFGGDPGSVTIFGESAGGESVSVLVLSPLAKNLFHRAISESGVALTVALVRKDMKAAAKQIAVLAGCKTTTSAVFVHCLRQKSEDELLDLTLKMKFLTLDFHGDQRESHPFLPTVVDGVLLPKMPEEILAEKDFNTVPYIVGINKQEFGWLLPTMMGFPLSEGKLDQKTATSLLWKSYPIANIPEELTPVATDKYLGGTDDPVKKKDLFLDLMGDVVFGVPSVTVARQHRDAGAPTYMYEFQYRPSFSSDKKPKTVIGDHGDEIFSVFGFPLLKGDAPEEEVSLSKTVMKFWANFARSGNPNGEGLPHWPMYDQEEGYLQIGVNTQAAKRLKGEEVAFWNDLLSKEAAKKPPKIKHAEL
# [11] = target: Translocator protein (Homo sapiens, UniProt P30536); assay: Inhibition of TSPO receptor (unknown origin) assessed as binding constant
# Chain of Translocator protein (P30536 whole entry): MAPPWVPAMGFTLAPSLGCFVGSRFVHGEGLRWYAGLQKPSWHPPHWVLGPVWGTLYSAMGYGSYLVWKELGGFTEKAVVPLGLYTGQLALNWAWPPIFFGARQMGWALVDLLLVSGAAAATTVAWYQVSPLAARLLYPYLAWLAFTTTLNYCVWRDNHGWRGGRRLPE
# Chain of Sigma non-opioid intracellular receptor 1 (Q99720 whole entry): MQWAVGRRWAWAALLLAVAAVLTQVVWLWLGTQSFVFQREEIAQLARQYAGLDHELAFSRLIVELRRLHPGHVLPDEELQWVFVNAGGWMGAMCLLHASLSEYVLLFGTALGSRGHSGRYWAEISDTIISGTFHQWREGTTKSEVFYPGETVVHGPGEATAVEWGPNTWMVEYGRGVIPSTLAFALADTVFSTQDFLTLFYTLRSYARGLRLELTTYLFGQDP
# Chain of Sigma intracellular receptor 2 (Q5BJF2 whole entry): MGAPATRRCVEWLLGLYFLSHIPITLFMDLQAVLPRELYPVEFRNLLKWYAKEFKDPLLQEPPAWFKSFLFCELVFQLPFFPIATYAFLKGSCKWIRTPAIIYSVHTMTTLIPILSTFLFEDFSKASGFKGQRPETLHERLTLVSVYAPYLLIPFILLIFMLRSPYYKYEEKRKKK
# Chain of Beta-3 adrenergic receptor (P13945 whole entry): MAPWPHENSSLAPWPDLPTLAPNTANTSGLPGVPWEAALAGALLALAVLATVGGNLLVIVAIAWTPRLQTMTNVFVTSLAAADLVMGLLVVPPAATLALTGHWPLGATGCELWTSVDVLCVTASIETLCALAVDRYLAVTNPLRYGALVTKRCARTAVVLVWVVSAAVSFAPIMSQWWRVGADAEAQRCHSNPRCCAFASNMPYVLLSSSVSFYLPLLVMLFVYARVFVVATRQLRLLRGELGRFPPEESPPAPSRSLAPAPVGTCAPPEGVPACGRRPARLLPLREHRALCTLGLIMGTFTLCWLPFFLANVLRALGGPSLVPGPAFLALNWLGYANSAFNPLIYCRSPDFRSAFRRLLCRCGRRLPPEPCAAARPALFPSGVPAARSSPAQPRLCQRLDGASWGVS
# Chain of D(1B) dopamine receptor (P21918 whole entry): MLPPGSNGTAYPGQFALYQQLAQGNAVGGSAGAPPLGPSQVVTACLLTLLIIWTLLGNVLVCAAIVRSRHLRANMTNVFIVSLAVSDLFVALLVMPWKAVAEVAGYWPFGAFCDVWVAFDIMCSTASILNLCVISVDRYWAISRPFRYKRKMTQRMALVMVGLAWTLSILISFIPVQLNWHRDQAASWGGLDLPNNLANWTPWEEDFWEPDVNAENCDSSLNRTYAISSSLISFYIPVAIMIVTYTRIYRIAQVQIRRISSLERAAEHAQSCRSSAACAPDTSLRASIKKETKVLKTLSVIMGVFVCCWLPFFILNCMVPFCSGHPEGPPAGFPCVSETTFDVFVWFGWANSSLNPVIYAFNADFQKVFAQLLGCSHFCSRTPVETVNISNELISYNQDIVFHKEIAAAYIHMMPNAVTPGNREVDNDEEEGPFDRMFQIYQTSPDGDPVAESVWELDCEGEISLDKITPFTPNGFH
SMILES,logD ([1]; read-out: logD),solubility ([5]; buffer) [µg/mL],IC50 [6] [nM],other results
O=C(O)c1cc(-c2ccc([C@@H]3C[C@H]4CN[C@@H]3C4)cc2)c2ccc(-c3ccc(C(F)(F)F)cc3)cc2c1,2.1,–,–,Ki [2]: 1000 nM; IC50 [3]: 90.9 nM
O=C(O)c1cc(-c2ccc([C@@H]3CCN[C@@H]4C[C@@H]43)cc2)c2ccc(-c3ccc(C(F)(F)F)cc3)cc2c1 (racemic),1.8,0.05,–,solubility ([4]; buffer): 0.24 µg/mL
N[C@@H]1C[C@H](CO)C[C@H]1c1ccc(-c2cc(C(=O)O)cc3cc(-c4ccc(C(F)(F)F)cc4)ccc23)cc1,1.1,–,–,–
CC(=O)N1C[C@@H]2C[C@H]1C[C@H]2c1ccc(-c2cc(C(=O)O)cc3cc(-c4ccc(C(F)(F)F)cc4)ccc23)cc1,–,–,64.1,logD [1]: 0.55; Ki [2]: 1700 nM; Ki [7]: > 1000 nM; Ki [8]: 4200 nM
O=C(O)c1cc(-c2ccc([C@@H]3C[C@@H]4C[C@H]3C(=O)N4)cc2)c2ccc(-c3ccc(C(F)(F)F)cc3)cc2c1,0.49,–,–,Ki [2]: 1900 nM; Ki [8]: 3200 nM; Ki [9]: > 1000 nM
CC(=O)N1C[C@@H]2C[C@H]1C[C@H]2c1ccc(-c2cc(C(=O)O)cc3cc(-c4ccc(C(F)(F)F)cc4)ccc23)cc1 (racemic),0.92,2.53,–,solubility ([4]; buffer): 0.13 µg/mL
CN(C)C(=O)COC(=O)c1cc(-c2ccc([C@@H]3C[C@@H]4C[C@H]3C(=O)N4)cc2)c2ccc(-c3ccc(C(F)(F)F)cc3)cc2c1,–,–,–,half-life [10]: > 3 days
CC1CC(c2ccc(-c3cc(C(=O)O)cc4cc(-c5ccc(C(F)(F)F)cc5)ccc34)cc2)CCN1 (configuration not stated),2.1,–,–,–
O=C(O)c1cc(-c2ccc([C@]3(O)C[C@H]4CC[C@@H]3CN4)cc2)c2ccc(-c3ccc(C(F)(F)F)cc3)cc2c1 (racemic),0.74,–,114,–
CC(=O)N1C[C@@H]2C[C@H]1C[C@H]2c1ccc(-c2cc(C(=O)OCC(=O)N(C)C)cc3cc(-c4ccc(C(F)(F)F)cc4)ccc23)cc1,–,–,–,half-life [10]: > 3 days
N[C@@H]1C[C@H](C(=O)O)[C@@H](c2ccc(-c3cc(C(=O)O)cc4cc(-c5ccc(C(F)(F)F)cc5)ccc34)cc2)C1,–,–,–,Ki [2]: 2000 nM
CC(=O)N1C[C@H]2C[C@@H]1C[C@@H]2c1ccc(-c2cc(C(=O)O)cc3cc(-c4ccc(C(F)(F)F)cc4)ccc23)cc1,0.92,–,99.3,–
O=C(O)c1cc(-c2ccc([C@H]3C[C@H]4C[C@@H]3NC4=O)cc2)c2ccc(-c3ccc(C(F)(F)F)cc3)cc2c1,–,–,–,Ki [11]: 1400 nM; Ki [2]: 1400 nM; Ki [7]: > 1000 nM; Ki [8]: 2600 nM; Ki [9]: > 1000 nM
O=C(O)c1cc(-c2ccc(C3(O)[C@H]4CC[C@H]3CNC4)cc2)c2ccc(-c3ccc(C(F)(F)F)cc3)cc2c1 (some centres not stated),1.2,0.54,21.3,Ki [2]: 1700 nM; solubility ([4]; buffer): 2.32 µg/mL; Ki [8]: 1700 nM; IC50 [3]: 15.5 nM
N[C@H]1C[C@@H](C(=O)O)[C@H](c2ccc(-c3cc(C(=O)O)cc4cc(-c5ccc(C(F)(F)F)cc5)ccc34)cc2)C1,-0.57,–,–,–
O=C(O)c1cc(-c2ccc(C3[C@H]4CC[C@H]3CNC4)cc2)c2ccc(-c3ccc(C(F)(F)F)cc3)cc2c1 (some centres not stated),3,0.16,696,solubility ([4]; buffer): 0.32 µg/mL
N[C@@H]1C[C@H](C(=O)O)C[C@H]1c1ccc(-c2cc(C(=O)O)cc3cc(-c4ccc(C(F)(F)F)cc4)ccc23)cc1,-0.48,–,–,–

SMILES,logD ([1]; read-out: logD),solubility ([5]; buffer) [µg/mL],IC50 [6] [nM],other results
O=C(O)c1cc(-c2ccc(C3(O)[C@H]4CC[C@H]3CN(Cc3ccccc3)C4)cc2)c2ccc(-c3ccc(C(F)(F)F)cc3)cc2c1 (some centres not stated),3.3,0.14,–,solubility ([4]; buffer): 0.48 µg/mL
CCOC(=O)N1C[C@H]2C[C@@H]1C[C@@H]2c1ccc(-c2cc(C(=O)O)cc3cc(-c4ccc(C(F)(F)F)cc4)ccc23)cc1,–,–,442,–
O=C(O)c1cc(-c2ccc([C@H]3CCN[C@@H]4C[C@H]34)cc2)c2ccc(-c3ccc(C(F)(F)F)cc3)cc2c1 (relative stereo),2.6,0.51,–,solubility ([4]; aqueous medium): 0.1 µg/mL
N[C@H]1C[C@@H](C(=O)O)C[C@@H]1c1ccc(-c2cc(C(=O)O)cc3cc(-c4ccc(C(F)(F)F)cc4)ccc23)cc1,–,–,269,–
O=C(O)c1cc(-c2ccc(C34CCNCC3C4(F)F)cc2)c2ccc(-c3ccc(C(F)(F)F)cc3)cc2c1 (racemic),2.7,–,–,–
N[C@@H]1C[C@H](CO)[C@@H](c2ccc(-c3cc(C(=O)O)cc4cc(-c5ccc(C(F)(F)F)cc5)ccc34)cc2)C1,–,–,–,Ki [2]: 1000 nM
CC1CNCCC1c1ccc(-c2cc(C(=O)O)cc3cc(-c4ccc(C(F)(F)F)cc4)ccc23)cc1 (configuration not stated),2.8,–,–,–
O=C(O)c1cc(-c2ccc(C34CCN(CC3)CC4)cc2)c2ccc(-c3ccc(C(F)(F)F)cc3)cc2c1,4.2,0.55,–,solubility ([4]; buffer): 1.5 µg/mL
O=C(O)c1cc(-c2ccc([C@@]3(O)C[C@H]4CC[C@@H]3CN4)cc2)c2ccc(-c3ccc(C(F)(F)F)cc3)cc2c1 (racemic),0.96,–,15.6,–
O=C(O)c1cc(-c2ccc(C3=CC4CCC(C3)N4)cc2)c2ccc(-c3ccc(C(F)(F)F)cc3)cc2c1 (racemic),2.3,–,–,–
O=C(O)c1cc(-c2ccc(C3CC4CCC(C3)N4)cc2)c2ccc(-c3ccc(C(F)(F)F)cc3)cc2c1 (configuration not stated),2.3,0.13,38.3,solubility ([4]; buffer): 0.38 µg/mL
COC1(c2ccc(-c3cc(C(=O)O)cc4cc(-c5ccc(C(F)(F)F)cc5)ccc34)cc2)[C@H]2CC[C@H]1CNC2 (some centres not stated),1.4,–,44.6,solubility ([4]; buffer): 1.81 µg/mL; solubility ([5]; aqueous medium): 0.88 µg/mL
O=C(O)c1cc(-c2ccc(C34CCNCC3C4)cc2)c2ccc(-c3ccc(C(F)(F)F)cc3)cc2c1 (racemic),2.4,0.17,45.5,solubility ([4]; aqueous medium): 1.32 µg/mL
O=C(O)c1cc(-c2ccc([C@@]3(O)C[C@H]4CC[C@@H](C3)N4)cc2)c2ccc(-c3ccc(C(F)(F)F)cc3)cc2c1,1.2,–,–,–
O=C(O)c1cc(-c2ccc(C3CC4CCC3CN4)cc2)c2ccc(-c3ccc(C(F)(F)F)cc3)cc2c1 (configuration not stated),1.7,–,25.1,–
O=C(O)c1cc(-c2ccc([C@H]3C[C@H]4C[C@@H]3CN4)cc2)c2ccc(-c3ccc(C(F)(F)F)cc3)cc2c1 (racemic),2,0.47,–,Ki [2]: 650 nM; solubility ([4]; buffer): 2.73 µg/mL; Ki [9]: > 1000 nM
